# Assay results from ChEMBL document CHEMBL1201862, “PubChem BioAssay data set” (2004).
#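 Briefly, cells in 96-well plates were exposed to five compound concentrations for 48 h, and endpoints were estimated by linear interpolation. GI50 marks 50% less growth.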 The source made the active and inactive calls. Rule as the data show it: active = GI50 up to about 1.1 µM and inactive = higher.
# Assays:
# Test in all cases: NCI tumour cell line growth inhibition, 48 h
# [1] = tested on: SW-620
# [2] = tested on: SNB-19
# [3] = tested on: HL-60
# [4] = tested on: MOLT-4
# [5] = tested on: LOX IMVI
# [6] = tested on: OVCAR-3
# [7] = tested on: NCI-H460
# [8] = tested on: HOP-62
# [9] = tested on: SNB-78
# [10] = tested on: RXF 393
# [11] = tested on: NCI-H522
# [12] = tested on: SK-OV-3
# [13] = tested on: LXFL 529
# [14] = tested on: HCT-116
# [15] = tested on: UO-31
# [16] = tested on: OVCAR-4
# [17] = tested on: CAKI-1
# [18] = tested on: M19-MEL
# [19] = tested on: HCT-15
# [20] = tested on: A549
# [21] = tested on: SR
# [22] = tested on: RPMI-8226
# [23] = tested on: DLD-1
# [24] = tested on: SK-MEL-2
# [25] = tested on: SN12C
# [26] = tested on: DMS-114
# [27] = tested on: HT-29
# [28] = tested on: Malme-3M
# [29] = tested on: 786-0
# [30] = tested on: SK-MEL-28
# [31] = tested on: UACC-62
# [32] = tested on: SF-268
# [33] = tested on: TK-10
# [34] = tested on: EKVX
# [35] = tested on: XF498
# [36] = tested on: RXF 631
# [37] = tested on: ACHN
# [38] = tested on: NCI-H226
# [39] = tested on: A498
# [40] = tested on: M14
# [41] = tested on: NCI-H23
# [42] = tested on: UACC-257
# [43] = tested on: CCRF-CEM
# [44] = tested on: OVCAR-8
# [45] = tested on: HCC 2998
# [46] = tested on: HOP-18
# [47] = tested on: SF-295
# [48] = tested on: KM-20L2
# [49] = tested on: COLO 205
# [50] = tested on: DMS-273
# [51] = tested on: IGROV-1
# [52] = tested on: KM12
# [53] = tested on: SNB-75
# [54] = tested on: U-251
# [55] = tested on: OVCAR-5
# [56] = tested on: SF-539
# [57] = tested on: K562
# [58] = tested on: SK-MEL-5
# [59] = tested on: HOP-92
structure (smiles),measurement,setting,value
CC(=O)Oc1ccc(O)c2c1CCCC2,GI50,[1],20.8 µM (inactive)
same,GI50,[2],> 100 µM (inactive)
same,GI50,[3],3.66 µM (inactive)
same,GI50,[4],12.1 µM (inactive)
same,GI50,[5],19.4 µM (inactive)
same,GI50,[6],12.5 µM (inactive)
same,GI50,[7],> 31.6 µM (inactive)
same,GI50,[8],> 100 µM (inactive)
same,GI50,[9],19.8 µM (inactive)
same,GI50,[10],> 42.8 µM (inactive)
same,GI50,[11],13.6 µM (inactive)
same,GI50,[12],46.7 µM (inactive)
same,GI50,[13],16.3 µM (inactive)
same,GI50,[14],18.4 µM (inactive)
same,GI50,[15],> 45.5 µM (inactive)
same,GI50,[16],19 µM (inactive)
same,GI50,[17],31.1 µM (inactive)
same,GI50,[18],13.4 µM (inactive)
same,GI50,[19],13.4 µM
same,GI50,[20],> 100 µM (inactive)
same,GI50,[21],2.82 µM (inactive)
same,GI50,[22],23.3 µM (inactive)
same,GI50,[23],20.7 µM (inactive)
same,GI50,[24],> 100 µM (inactive)
same,GI50,[25],> 45.4 µM (inactive)
same,GI50,[26],30.2 µM (inactive)
same,GI50,[27],35.7 µM (inactive)
same,GI50,[28],> 40.5 µM (inactive)
same,GI50,[29],> 100 µM (inactive)
same,GI50,[30],66.4 µM (inactive)
same,GI50,[31],> 75.5 µM (inactive)
same,GI50,[32],58.3 µM (inactive)
same,GI50,[33],21.4 µM (inactive)
same,GI50,[34],64.9 µM (inactive)
same,GI50,[35],16.4 µM (inactive)
same,GI50,[36],> 100 µM (inactive)
same,GI50,[37],15.2 µM (inactive)
same,GI50,[38],> 100 µM (inactive)
same,GI50,[39],> 31.6 µM (inactive)
same,GI50,[40],24.2 µM (inactive)
same,GI50,[41],> 52.8 µM (inactive)
same,GI50,[42],39.9 µM (inactive)
same,GI50,[43],10.2 µM (inactive)
same,GI50,[44],18 µM (inactive)
same,GI50,[45],> 100 µM (inactive)
same,GI50,[46],21.6 µM (inactive)
same,GI50,[47],> 100 µM (inactive)
same,GI50,[48],> 100 µM (inactive)
same,GI50,[49],22.4 µM (inactive)
same,GI50,[50],> 46.1 µM (inactive)
same,GI50,[51],> 100 µM (inactive)
same,GI50,[52],> 100 µM (inactive)
same,GI50,[53],> 100 µM (inactive)
same,GI50,[54],> 78.3 µM (inactive)
same,GI50,[55],> 100 µM (inactive)
same,GI50,[56],> 100 µM (inactive)
same,GI50,[57],22.2 µM (inactive)
same,GI50,[58],> 45.7 µM (inactive)
[O-][S+]1Cc2ccccc2CSS1 (centres undefined),GI50,[1],13.6 µM (inactive)
same,GI50,[2],35.5 µM (inactive)
same,GI50,[3],3.44 µM (inactive)
same,GI50,[4],12.6 µM (inactive)
same,GI50,[5],3.96 µM (inactive)
same,GI50,[6],15.1 µM (inactive)
same,GI50,[7],16.8 µM (inactive)
same,GI50,[9],20 µM (inactive)
same,GI50,[10],3.85 µM (inactive)
same,GI50,[11],6.28 µM (inactive)
same,GI50,[12],44.3 µM (inactive)
same,GI50,[13],14.1 µM (inactive)
same,GI50,[14],15 µM (inactive)
same,GI50,[15],17.9 µM (inactive)
same,GI50,[16],16.6 µM (inactive)
same,GI50,[17],16.3 µM (inactive)
same,GI50,[18],20.2 µM (inactive)
same,GI50,[19],13 µM
same,GI50,[20],19 µM (inactive)
same,GI50,[21],13.9 µM (inactive)
same,GI50,[22],16.3 µM (inactive)
same,GI50,[23],18.1 µM (inactive)
same,GI50,[25],14.4 µM (inactive)
same,GI50,[26],17.2 µM (inactive)
same,GI50,[27],14.4 µM (inactive)
same,GI50,[28],13 µM (inactive)
same,GI50,[29],15.7 µM (inactive)
same,GI50,[30],13.8 µM (inactive)
same,GI50,[31],13 µM (inactive)
same,GI50,[32],23.9 µM (inactive)
same,GI50,[33],16.8 µM (inactive)
same,GI50,[34],25.2 µM (inactive)
same,GI50,[35],19.7 µM (inactive)
same,GI50,[36],19.8 µM (inactive)
same,GI50,[37],12.8 µM (inactive)
same,GI50,[38],27.2 µM (inactive)
same,GI50,[39],56.5 µM (inactive)
same,GI50,[40],14 µM (inactive)
same,GI50,[41],14.3 µM (inactive)
same,GI50,[42],14.5 µM (inactive)
same,GI50,[44],14.5 µM (inactive)
same,GI50,[59],15.6 µM (inactive)
same,GI50,[45],26.1 µM (inactive)
same,GI50,[46],27.9 µM (inactive)
same,GI50,[47],18.7 µM (inactive)
same,GI50,[48],16.9 µM (inactive)
same,GI50,[49],14.2 µM (inactive)
same,GI50,[50],11.8 µM (inactive)
same,GI50,[51],29.2 µM (inactive)
same,GI50,[52],16.8 µM (inactive)
same,GI50,[53],19.6 µM (inactive)
same,GI50,[54],14.3 µM (inactive)
same,GI50,[55],16.3 µM (inactive)
same,GI50,[56],14.5 µM (inactive)
same,GI50,[57],12.3 µM (inactive)
same,GI50,[58],13.5 µM (inactive)
C/C=C/C=C/[C@H]1Cc2cc(O)cc(O)c2O1,GI50,[1],58.6 µM (inactive)
same,GI50,[2],80.7 µM (inactive)
same,GI50,[3],26.1 µM (inactive)
same,GI50,[4],31.8 µM (inactive)
same,GI50,[5],47.9 µM (inactive)
same,GI50,[6],33 µM (inactive)
same,GI50,[7],44.1 µM (inactive)
same,GI50,[8],> 100 µM (inactive)
same,GI50,[9],> 100 µM (inactive)
same,GI50,[10],> 100 µM (inactive)
same,GI50,[11],36.6 µM (inactive)
same,GI50,[12],> 100 µM (inactive)
same,GI50,[13],27.4 µM (inactive)
same,GI50,[14],81.3 µM (inactive)
same,GI50,[15],29.4 µM (inactive)
same,GI50,[16],35 µM (inactive)
same,GI50,[17],58.9 µM (inactive)
same,GI50,[18],39.6 µM (inactive)
same,GI50,[19],84.9 µM
same,GI50,[20],70 µM (inactive)
same,GI50,[21],78.5 µM (inactive)
same,GI50,[23],82 µM (inactive)
same,GI50,[24],> 100 µM (inactive)
same,GI50,[25],55.3 µM (inactive)
same,GI50,[26],22.6 µM (inactive)
same,GI50,[27],72.4 µM (inactive)
same,GI50,[28],52.5 µM (inactive)
same,GI50,[29],> 100 µM (inactive)
same,GI50,[30],> 100 µM (inactive)
same,GI50,[31],22.9 µM (inactive)
same,GI50,[32],> 100 µM (inactive)
same,GI50,[33],> 100 µM (inactive)
same,GI50,[34],55.5 µM (inactive)
same,GI50,[35],46.5 µM (inactive)
same,GI50,[36],62.4 µM (inactive)
same,GI50,[37],52.5 µM (inactive)
same,GI50,[39],> 100 µM (inactive)
same,GI50,[40],37.3 µM (inactive)
same,GI50,[41],51.5 µM (inactive)
same,GI50,[42],28.4 µM (inactive)
same,GI50,[43],30.8 µM (inactive)
same,GI50,[44],60.4 µM (inactive)
same,GI50,[59],> 100 µM (inactive)
same,GI50,[46],> 100 µM (inactive)
same,GI50,[47],57.3 µM (inactive)
same,GI50,[48],62.4 µM (inactive)
same,GI50,[49],55 µM (inactive)
same,GI50,[50],28.9 µM (inactive)
same,GI50,[51],> 100 µM (inactive)
same,GI50,[52],61 µM (inactive)
same,GI50,[53],> 100 µM (inactive)
same,GI50,[54],59.2 µM (inactive)
same,GI50,[55],> 100 µM (inactive)
same,GI50,[56],> 100 µM (inactive)
same,GI50,[57],37.2 µM (inactive)
same,GI50,[58],49.7 µM (inactive)
Cc1cc2c(CC(=O)O)n[nH]c2c(C(=O)O)c1C,GI50,[1],> 100 µM (inactive)
same,GI50,[2],> 100 µM (inactive)
same,GI50,[3],> 100 µM (inactive)
same,GI50,[4],> 100 µM (inactive)
same,GI50,[5],> 100 µM (inactive)
same,GI50,[6],> 100 µM (inactive)
same,GI50,[7],> 100 µM (inactive)
same,GI50,[8],> 100 µM (inactive)
same,GI50,[9],> 100 µM (inactive)
same,GI50,[10],> 100 µM (inactive)
same,GI50,[12],> 100 µM (inactive)
same,GI50,[13],> 100 µM (inactive)
same,GI50,[14],> 100 µM (inactive)
same,GI50,[15],> 100 µM (inactive)
same,GI50,[18],> 100 µM (inactive)
same,GI50,[19],> 100 µM
same,GI50,[20],> 100 µM (inactive)
same,GI50,[21],> 100 µM (inactive)
same,GI50,[22],> 100 µM (inactive)
same,GI50,[23],> 100 µM (inactive)
same,GI50,[24],> 100 µM (inactive)
same,GI50,[25],> 100 µM (inactive)
same,GI50,[27],> 100 µM (inactive)
same,GI50,[28],> 100 µM (inactive)
same,GI50,[29],> 100 µM (inactive)
same,GI50,[30],> 100 µM (inactive)
same,GI50,[31],> 100 µM (inactive)
same,GI50,[32],> 100 µM (inactive)
same,GI50,[33],> 100 µM (inactive)
same,GI50,[34],> 100 µM (inactive)
same,GI50,[35],> 100 µM (inactive)
same,GI50,[36],> 100 µM (inactive)
same,GI50,[37],> 100 µM (inactive)
same,GI50,[38],> 100 µM (inactive)
same,GI50,[41],> 100 µM (inactive)
same,GI50,[42],> 100 µM (inactive)
same,GI50,[43],> 100 µM (inactive)
same,GI50,[44],> 100 µM (inactive)
same,GI50,[59],> 100 µM (inactive)
same,GI50,[45],> 100 µM (inactive)
same,GI50,[46],> 100 µM (inactive)
same,GI50,[47],> 100 µM (inactive)
same,GI50,[48],> 100 µM (inactive)
same,GI50,[49],> 100 µM (inactive)
same,GI50,[50],> 100 µM (inactive)
same,GI50,[53],> 100 µM (inactive)
same,GI50,[54],> 100 µM (inactive)
same,GI50,[55],> 100 µM (inactive)
same,GI50,[56],> 100 µM (inactive)
